Assay results reported in US7855309B2, “Pesticide benzyloxy- and phenetyl-substituted phenyl-amidine derivatives” (Bayer CropScience AG, priority 2005, dated 2010).

Assay: logP by HPLC on reversed-phase column (EEC Directive 79/831 Annex V.A8)
Type: physicochemical
Settings: HPLC, C18, 40° C., 0.1% aqueous formic acid and acetonitrile
Description: Temperature: 40° C.; Mobile phases: 0.1% aqueous formic acid and acetonitrile; linear gradient from 10% acetonitrile to 90% acetonitrile.
Calibration was carried out using unbranched alkan-2-ones (comprising 3 to 16 carbon atoms) with known logP values (determination of the logP values by the retention times using linear interpolation between two successive alkanones).

SMILES	log P
Cc1cc(OC(C)c2ccc(F)cc2)c(C)cc1N=CN1CCCCC1 (racemic) [Compound 93]	2.18
Cc1cc(OC(C)c2ccccc2Cl)c(C)cc1N=CN1CCCCC1 (racemic) [Compound 130]	2.36
Cc1cc(OC(C)c2cccc(Cl)c2)c(C)cc1N=CN1CCCCC1 (racemic) [Compound 131]	2.36
Cc1cc(OC(C)c2ccc(Cl)cc2)c(C)cc1N=CN1CCCCC1 (racemic) [Compound 132]	2.36
CCN(C)C=Nc1cc(C)c(OCc2ccc(F)cc2)cc1C [Compound 2]	1.99
CCN(C)C=Nc1cc(C)c(OCc2cc3c(cc2Cl)OCO3)cc1C [Compound 5]	2.05
CCN(C)C=Nc1cc(C)c(OCc2ccc(C(C)(C)C)cc2)cc1C [Compound 8]	2.67
CCN(C)C=Nc1cc(C)c(OCc2ccc(C#N)cc2)cc1C [Compound 10]	1.7
CCN(C)C=Nc1cc(C)c(OCc2ccccc2F)cc1C [Compound 11]	1.94
CCN(C)C=Nc1cc(C)c(OCc2cccc(C=NOC)c2)cc1C [Compound 12]	2.07
CCN(C)C=Nc1cc(C)c(OCc2ccc(F)c(F)c2)cc1C [Compound 15]	2.02
CCN(C)C=Nc1cc(C)c(OCc2cccc(OC(F)(F)F)c2)cc1C [Compound 17]	2.33
CCN(C)C=Nc1cc(C)c(OCc2cc(C(F)(F)F)cc(C(F)(F)F)c2)cc1C [Compound 21]	2.62
CCN(C)C=Nc1cc(C)c(OCc2ccc(F)c(OC)c2)cc1C [Compound 22]	1.92
CCN(C)C=Nc1cc(C)c(OCc2ccc(OC(F)(F)F)cc2)cc1C [Compound 23]	2.38
CCN(C)C=Nc1cc(C)c(OCc2ccc(OC(F)F)cc2)cc1C [Compound 24]	2.06
CCN(C)C=Nc1cc(C)c(OCc2ccccc2OC(F)F)cc1C [Compound 26]	2.03
CCN(C)C=Nc1cc(C)c(OCc2ccc3nsnc3c2)cc1C [Compound 27]	1.86
CCN(C)C=Nc1cc(C)c(OCc2ccc(Cl)c(C(F)(F)F)c2)cc1C [Compound 28]	2.47
CCN(C)C=Nc1cc(C)c(OCc2ccc(C)cc2)cc1C [Compound 32]	2.1
CCN(C)C=Nc1cc(C)c(OCc2ccccc2Cl)cc1C [Compound 33]	2.08
CCN(C)C=Nc1cc(C)c(OCc2ccccc2C(F)(F)F)cc1C [Compound 34]	2.14

SMILES	log P
CCN(C)C=Nc1cc(C)c(CCc2cccc(Cl)c2)cc1C [Compound 36]	2.2
CCN(C)C=Nc1cc(C)c(CCc2ccccc2Cl)cc1C [Compound 37]	2.26
CCN(C)C=Nc1cc(C)c(CCc2ccccc2C)cc1C [Compound 38]	2.38
CCN(C)C=Nc1cc(C)c(CCc2ccc(OC)cc2)cc1C [Compound 39]	2.04
CCN(C)C=Nc1cc(C)c(CCc2ccc(Cl)cc2)cc1C [Compound 40]	2.27
CCN(C)C=Nc1cc(C)c(CCc2ccc(C)cc2)cc1C [Compound 41]	2.23
CCN(C)C=Nc1cc(C)c(CCc2ccc(F)cc2)cc1C [Compound 42]	2.05
CCN(C)C=Nc1cc(C)c(CCc2cccc(C(F)(F)F)c2)cc1C [Compound 43]	2.41
CCN(C)C=Nc1cc(C)c(CCc2ccccc2C(F)(F)F)cc1C [Compound 45]	2.42
CCN(C)C=Nc1cc(C)c(CCc2ccc(C(F)(F)F)cc2)cc1C [Compound 46]	2.45
CCN(C)C=Nc1cc(C)c(OCc2cc(C)c(C)cc2Cl)cc1C [Compound 47]	2.42
CCN(C)C=Nc1cc(C)c(OCc2c(F)cccc2F)cc1C [Compound 48]	1.94
C=Cc1cccc(COc2cc(C)c(N=CN(C)CC)cc2C)c1 [Compound 50]	2.16
CCN(C)C=Nc1cc(C)c(OCc2cccc3nsnc23)cc1C [Compound 51]	1.92
CCN(C)C=Nc1cc(C)c(OCc2ccc(C(=O)OC)cc2)cc1C [Compound 53]	1.9
CCN(C)C=Nc1cc(C)c(OCc2cccc(C(=O)OC(C)(C)C)c2)cc1C [Compound 54]	2.42
CCN(C)C=Nc1cc(C)c(OCc2ccc(Cl)cc2Cl)cc1C [Compound 55]	2.33
CCN(C)C=Nc1cc(C)c(OCc2cccc(C)c2)cc1C [Compound 57]	2.11
CCN(C)C=Nc1cc(C)c(OCc2ccccc2C#N)cc1C [Compound 58]	1.78
CCN(C)C=Nc1cc(C)c(OCc2cc(F)ccc2F)cc1C [Compound 59]	1.99
CCN(C)C=Nc1cc(C)c(OCc2cc(C)cc(C)c2)cc1C [Compound 60]	2.26
CCN(C)C=Nc1cc(C)c(OCc2ccc3ccccc3c2)cc1C [Compound 62]	2.29

SMILES	log P
CCN(C)C=Nc1cc(C)c(OCc2cc(OC)c(OC)cc2Cl)cc1C [Compound 63]	1.99
CCN(C)C=Nc1cc(C)c(OCc2ccccc2C)cc1C [Compound 66]	2.06
CCN(C)C=Nc1cc(C)c(OCc2ccccc2Br)cc1C [Compound 67]	2.13
CCN(C)C=Nc1cc(C)c(OCc2ccc(Br)cc2)cc1C [Compound 70]	2.21
CCN(C)C=Nc1cc(C)c(OCc2cccc(C)c2Cl)cc1C [Compound 71]	2.29
CCN(C)C=Nc1cc(C)c(OCc2cccc(C#N)c2)cc1C [Compound 74]	1.83
CCN(C)C=Nc1cc(C)c(OCc2ccc3c(c2)CCCC3)cc1C [Compound 75]	2.55
CCN(C)C=Nc1cc(C)c(OCc2cccc3ccccc23)cc1C [Compound 76]	2.45
CCN(C)C=Nc1cc(C)c(OCc2cccc(C)c2F)cc1C [Compound 77]	2.16
CCN(C)C=Nc1cc(C)c(OCc2ccc(OC)cc2)cc1C [Compound 78]	1.92
CCN(C)C=Nc1cc(C)c(OCc2ccc(OCc3ccccc3)cc2)cc1C [Compound 79]	2.51
CCN(C)C=Nc1cc(C)c(OCc2cccc(F)c2)cc1C [Compound 80]	1.99
CCN(C)C=Nc1cc(C)c(OCc2cccc(OC)c2)cc1C [Compound 81]	1.97
CCN(C)C=Nc1cc(C)c(OCc2ccc(C(C)C)cc2)cc1C [Compound 82]	2.51
CCN(C)C=Nc1cc(C)c(OCc2ccc(SC(F)(F)F)cc2)cc1C [Compound 83]	2.61
CCN(C)C=Nc1cc(C)c(OCc2ccc(SC)cc2)cc1C [Compound 84]	2.16
CCN(C)C=Nc1cc(C)c(OCc2cccc(I)c2)cc1C [Compound 85]	2.42
CCN(C)C=Nc1cc(C)c(OCc2c(C)cc(C)cc2C)cc1C [Compound 86]	2.42
CCN(C)C=Nc1cc(C)c(OCc2ccccc2I)cc1C [Compound 87]	2.29
CCN(C)C=Nc1cc(C)c(OCc2cccc(C)c2C)cc1C [Compound 89]	2.29
Cc1cc(OCc2cc(Cl)cc(Cl)c2)c(C)cc1N=CN1CCCCC1 [Compound 90]	2.51
Cc1ccc(C)c(COc2cc(C)c(N=CN3CCCCC3)cc2C)c1 [Compound 91]	2.33

SMILES	log P
Cc1cc(OCc2cc3c(cc2Cl)OCO3)c(C)cc1N=CN1CCCCC1 [Compound 92]	2.16
Cc1cc(OCc2cccc(Cl)c2)c(C)cc1N=CN1CCCCC1 [Compound 94]	2.21
Cc1cc(OCc2ccc(C(C)(C)C)cc2)c(C)cc1N=CN1CCCCC1 [Compound 95]	2.64
Cc1cc(OCc2cccc(C(F)(F)F)c2)c(C)cc1N=CN1CCCCC1 [Compound 96]	2.29
Cc1cc(OCc2cc(F)ccc2F)c(C)cc1N=CN1CCCCC1 [Compound 97]	2.09
Cc1cc(OCc2ccc(C#N)cc2)c(C)cc1N=CN1CCCCC1 [Compound 98]	1.94
Cc1cc(C)cc(COc2cc(C)c(N=CN3CCCCC3)cc2C)c1 [Compound 99]	2.42
Cc1cc(OCc2ccccc2F)c(C)cc1N=CN1CCCCC1 [Compound 100]	2.09
Cc1cc(OCc2c(F)cccc2Cl)c(C)cc1N=CN1CCCCC1 [Compound 101]	2.16
COc1cc(Cl)c(COc2cc(C)c(N=CN3CCCCC3)cc2C)cc1OC [Compound 102]	2.09
CON=Cc1ccc(COc2cc(C)c(N=CN3CCCCC3)cc2C)cc1 [Compound 103]	2.21
Cc1cc(OCc2ccc(F)cc2)c(C)cc1N=CN1CCCCC1 [Compound 104]	2.09
Cc1cc(OCc2ccc(Cl)cc2)c(C)cc1N=CN1CCCCC1 [Compound 105]	2.26
Cc1cc(OCc2ccccc2Cl)c(C)cc1N=CN1CCCCC1 [Compound 106]	2.18
Cc1cc(OCc2ccc(Cl)c(Cl)c2)c(C)cc1N=CN1CCCCC1 [Compound 107]	2.45
Cc1ccc(COc2cc(C)c(N=CN3CCCCC3)cc2C)cc1C [Compound 108]	2.36
Cc1cc(OCc2ccc(C(F)(F)F)cc2)c(C)cc1N=CN1CCCCC1 [Compound 109]	2.33
Cc1cc(OCc2ccc(F)c(F)c2)c(C)cc1N=CN1CCCCC1 [Compound 110]	2.13
Cc1cc(OCc2ccccc2OC(F)(F)F)c(C)cc1N=CN1CCCCC1 [Compound 111]	2.33
Cc1cc(OCc2ccccc2SC(F)(F)F)c(C)cc1N=CN1CCCCC1 [Compound 112]	2.48

Same assay, conditions: reversed-phase HPLC column (C18), pH 2.3; read-out: log P (pH 2.3)

chromatographic logP	SMILES
2.11	CCN(C)/C=N/c1cc(C)c(/C=C/c2ccccc2F)cc1C (racemic) [Intermediate (VII-1)]
2.23	CCN(C)/C=N/c1cc(C)c(CCc2ccccc2F)cc1C [Compound 44, N-ethyl-N′-{4-[2-(2-fluorophenyl)ethyl]-2,5-dimethylphenyl}-N-methylimidoformamide]

Same assay, conditions: reversed-phase HPLC column (C18); HPLC, C18, 40° C., 0.1% aqueous formic acid and acetonitrile; read-out: log P

chromatographic logP	SMILES
2.23	CCN(C)/C=N/c1cc(C)c(CCc2ccccc2F)cc1C [Compound 44, N-ethyl-N′-{4-[2-(2-fluorophenyl)ethyl]-2,5-dimethylphenyl}-N-methylimidoformamide]
